Like-named read-outs stand apart in the source and are kept apart here.

The assay has as its target T1, angiotensin-converting enzyme (ACE) (Sus scrofa, UniProt F1RRW5).
T1 construct: ACE isolated from porcine kidneys (EC 3.4.15.1)
T1 sequence (F1RRW5 34-1309): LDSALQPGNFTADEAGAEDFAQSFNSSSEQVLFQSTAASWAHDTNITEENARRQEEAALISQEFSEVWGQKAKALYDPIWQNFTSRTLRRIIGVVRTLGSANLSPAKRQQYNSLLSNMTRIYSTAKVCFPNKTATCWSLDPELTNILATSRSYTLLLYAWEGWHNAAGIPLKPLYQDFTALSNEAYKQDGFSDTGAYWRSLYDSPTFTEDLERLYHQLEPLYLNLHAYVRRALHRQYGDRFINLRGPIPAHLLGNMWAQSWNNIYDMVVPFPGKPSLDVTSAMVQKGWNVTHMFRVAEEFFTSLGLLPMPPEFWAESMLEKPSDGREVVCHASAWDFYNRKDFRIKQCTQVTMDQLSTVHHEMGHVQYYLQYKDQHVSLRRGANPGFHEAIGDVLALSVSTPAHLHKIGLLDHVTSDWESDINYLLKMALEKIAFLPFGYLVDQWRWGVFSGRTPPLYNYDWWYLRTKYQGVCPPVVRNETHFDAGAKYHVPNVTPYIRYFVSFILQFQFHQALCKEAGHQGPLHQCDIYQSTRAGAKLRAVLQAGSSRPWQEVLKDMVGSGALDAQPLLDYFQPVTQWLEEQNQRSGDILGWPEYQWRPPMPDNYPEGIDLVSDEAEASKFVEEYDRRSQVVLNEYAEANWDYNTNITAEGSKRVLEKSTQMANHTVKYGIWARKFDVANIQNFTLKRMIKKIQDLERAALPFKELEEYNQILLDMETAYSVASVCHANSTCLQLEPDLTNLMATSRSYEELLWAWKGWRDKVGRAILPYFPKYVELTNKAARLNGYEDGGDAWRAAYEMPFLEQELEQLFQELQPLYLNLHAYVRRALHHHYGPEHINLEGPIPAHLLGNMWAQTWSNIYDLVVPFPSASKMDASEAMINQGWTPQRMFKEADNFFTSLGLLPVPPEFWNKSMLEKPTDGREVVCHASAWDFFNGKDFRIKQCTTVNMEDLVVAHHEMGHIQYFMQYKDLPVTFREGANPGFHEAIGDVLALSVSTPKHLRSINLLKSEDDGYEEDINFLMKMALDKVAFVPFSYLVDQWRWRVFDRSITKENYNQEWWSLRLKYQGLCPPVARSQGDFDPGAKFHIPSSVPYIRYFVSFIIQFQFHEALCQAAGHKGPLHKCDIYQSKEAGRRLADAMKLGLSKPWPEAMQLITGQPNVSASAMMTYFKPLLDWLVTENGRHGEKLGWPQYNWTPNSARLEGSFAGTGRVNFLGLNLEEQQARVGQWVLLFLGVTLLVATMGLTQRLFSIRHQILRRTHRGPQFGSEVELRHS
Nature of the assay: fluorescence assay, hydrolysis of Abz-Gly-Phe(NO2)-Pro. The format is biochemical.

On to `N[C@@H](CCC(=O)N[C@@H](CS)C(=O)NCC(=O)O)C(=O)O` [GSH], for which the “IC50” value was determined as 12.79 ± 1.70 µg/mL.

With `O=C(O)/C=C/c1ccc(O)c(O)c1` [CFA, Caffeic acid], the IC50 (read-out: IC50 (μg/mL) (converted)) is 8.97 mM.

In the case of `O=C1O[C@H]([C@@H](O)CO)C(O)=C1O` [AA, L-ascorbic acid], the IC50 was 81.3 mM.
